The values that follow come from PubChem BioAssay AID306 (DTP/NCI, 2004).

This assay has as its system BDF1 mice, L1210 Methyl-GAG-resistant leukemia, survival T/C. Briefly: NCI In Vivo Anticancer Drug Screen. Data for tumor model L1210 Leukemia resistant to Methyl-GAG; NSC 32946 (subcutaneous) in B6D2F1 (BDF1) mice. Particulars: endpoint: mean survival time, higher = longer survival. Here is the method: The antitumor activity of compounds was measured in mice bearing transplantable tumors. Survival or tumor size were measured and the results are expressed as the measurement made in the treated group (T) divided by the measurement made in the vehicle treated control group (C). The tumor model used in this assay is L1210 Leukemia resistant to Methyl-GAG; NSC 32946 (subcutaneous) in B6D2F1 (BDF1) mice

[1] abbreviates: dose: 12.5 mg/kg/injection, schedule: Q01DX Z (ip), vehicle: carboxymethylcellulose (CMC).
Where [2] appears, read: dose: 25.0 mg/kg/injection, schedule: Q01DX Z (ip), vehicle: carboxymethylcellulose (CMC).
[3] abbreviates: dose: 1.25 mg/kg/injection, schedule: Q01DX Z (ip), vehicle: carboxymethylcellulose (CMC).
Setting [4] is: dose: 2.5 mg/kg/injection, schedule: Q01DX Z (ip), vehicle: carboxymethylcellulose (CMC).
[5] abbreviates: dose: 5.0 mg/kg/injection, schedule: Q01DX Z (ip), vehicle: carboxymethylcellulose (CMC).
[6] abbreviates: dose: 10.0 mg/kg/injection, schedule: Q01DX Z (ip), vehicle: carboxymethylcellulose (CMC).

Molecules are shown by their SMILES. Several values for one entry are separate records, joined by “and”; a condition that tells them apart may be missing. Identical values can stand only once. Inconclusive results and toxic doses are left out.

`CN(C)CC(=O)c1ccc(O)c(O)c1`: the T/C is 98 % of control (dose: 31.25 mg/kg/injection, schedule: Q01DX Z (ip), vehicle: saline); 96 % of control (dose: 62.5 mg/kg/injection, schedule: Q01DX Z (ip), vehicle: saline); 99 % of control (dose: 125.0 mg/kg/injection, schedule: Q01DX Z (ip), vehicle: saline); 99 % of control and 100 % of control (dose: 250.0 mg/kg/injection, schedule: Q01DX Z (ip), vehicle: saline); 97 % of control and 106 % of control (dose: 500.0 mg/kg/injection, schedule: Q01DX Z (ip), vehicle: saline).
In the case of `CC(=O)Nc1ccc2nc3ccc(NC(C)=O)cc3[n+](-c3ccccc3)c2c1`, the T/C reads like this: under setting [1], 97 % of control; under setting [2], 97 % of control; (dose: 50.0 mg/kg/injection, schedule: Q01DX Z (ip), vehicle: carboxymethylcellulose (CMC)) 113 % of control; (dose: 100.0 mg/kg/injection, schedule: Q01DX Z (ip), vehicle: carboxymethylcellulose (CMC)) 98 % of control; (dose: 200.0 mg/kg/injection, schedule: Q01DX Z (ip), vehicle: carboxymethylcellulose (CMC)) 88 % of control; (dose: 400.0 mg/kg/injection, schedule: Q01DX Z (ip), vehicle: carboxymethylcellulose (CMC)) 93 % of control.
On to `O=C(Nc1ccc(C2=NCCCN2)cc1)c1ccc(C(=O)Nc2ccc(C3=NCCCN3)cc2)cc1`, for which the T/C by setting is: (dose: 0.2 mg/kg/injection, schedule: Q01DX Z (ip), vehicle: water) 100 % of control; (dose: 0.4 mg/kg/injection, schedule: Q01DX Z (ip), vehicle: water) 108 % of control; (dose: 0.8 mg/kg/injection, schedule: Q01DX Z (ip), vehicle: water) 121 % of control; (dose: 1.6 mg/kg/injection, schedule: Q01DX Z (ip), vehicle: water) 158 % of control and 211 % of control; (dose: 3.1 mg/kg/injection, schedule: Q01DX Z (ip), vehicle: water) 212 % of control.
On to `O=C(Nc1ccc(C2=NCCCN2)cc1)c1ccc(NC(=O)c2ccc(C3=NCCCN3)cc2)cc1`, for which the T/C is 97 % of control (dose: 0.24 mg/kg/injection, schedule: Q01DX Z (ip), vehicle: carboxymethylcellulose (CMC)); 101 % of control (dose: 0.47 mg/kg/injection, schedule: Q01DX Z (ip), vehicle: carboxymethylcellulose (CMC)); 104 % of control (dose: 0.95 mg/kg/injection, schedule: Q01DX Z (ip), vehicle: carboxymethylcellulose (CMC)); 98 % of control (dose: 1.9 mg/kg/injection, schedule: Q01DX Z (ip), vehicle: carboxymethylcellulose (CMC)); 175 % of control and 192 % of control (dose: 1.95 mg/kg/injection, schedule: Q01DX Z (ip), vehicle: carboxymethylcellulose (CMC)); 169 % of control and 232 % of control (dose: 3.9 mg/kg/injection, schedule: Q01DX Z (ip), vehicle: carboxymethylcellulose (CMC)). The T/C (dose: 7.8 mg/kg/injection, schedule: Q01DX Z (ip), vehicle: carboxymethylcellulose (CMC)) is 216 % of control; the T/C (dose: 15.6 mg/kg/injection, schedule: Q01DX Z (ip), vehicle: carboxymethylcellulose (CMC)) was 112 % of control and 122 % of control.
With `O=c1[nH]c(=O)n(C2CC(O)C(CO)O2)cc1I` (stereo not drawn), the T/C by setting is: (dose: 62.5 mg/kg/injection, schedule: Q01DX Z (ip), vehicle: carboxymethylcellulose (CMC)) 118 % of control; (dose: 125.0 mg/kg/injection, schedule: Q01DX Z (ip), vehicle: carboxymethylcellulose (CMC)) 112 % of control; (dose: 500.0 mg/kg/injection, schedule: Q01DX Z (ip), vehicle: carboxymethylcellulose (CMC)) 117 % of control.
In the case of `S=c1nc[nH]c2nc[nH]c12`, the T/C was 107 % of control (dose: 12.5 mg/kg/injection, schedule: Q01DX Z (ip), vehicle: other); 252 % of control (dose: 37.5 mg/kg/injection, schedule: Q01DX Z (ip), vehicle: other); 153 % of control and 192 % of control (dose: 50.0 mg/kg/injection, schedule: Q01DX Z (ip), vehicle: other); 157 % of control (dose: 75.0 mg/kg/injection, schedule: Q01DX Z (ip), vehicle: other); 164 % of control (dose: 100.0 mg/kg/injection, schedule: Q01DX Z (ip), vehicle: other); 97 % of control and 119 % of control (dose: 200.0 mg/kg/injection, schedule: Q01DX Z (ip), vehicle: other). In addition, the T/C (dose: 300.0 mg/kg/injection, schedule: Q01DX Z (ip), vehicle: other) is 98 % of control.
Turning to `O[C@H](CN1CC1)[C@@H](O)CN1CC1`, the T/C is, setting by setting: (dose: 0.06 mg/kg/injection, schedule: Q01DX Z (ip), vehicle: carboxymethylcellulose (CMC)) 97 % of control; (dose: 0.12 mg/kg/injection, schedule: Q01DX Z (ip), vehicle: carboxymethylcellulose (CMC)) 110 % of control; (dose: 0.5 mg/kg/injection, schedule: Q01DX Z (ip), vehicle: carboxymethylcellulose (CMC)) 170 % of control and 178 % of control; (dose: 1.0 mg/kg/injection, schedule: Q01DX Z (ip), vehicle: carboxymethylcellulose (CMC)) 100 % of control; (dose: 63.0 micrograms/kg/injection, schedule: Q01DX Z (ip), vehicle: carboxymethylcellulose (CMC)) 101 % of control; (dose: 125.0 micrograms/kg/injection, schedule: Q01DX Z (ip), vehicle: carboxymethylcellulose (CMC)) 109 % of control.
`CC/C(=C(/CC)c1ccc(O)cc1)c1ccc(O)cc1`: the T/C (dose: 31.25 mg/kg/injection, schedule: Q01DX Z (sc), vehicle: steriod suspending solution) is 97 % of control; the T/C (dose: 62.5 mg/kg/injection, schedule: Q01DX Z (sc), vehicle: steriod suspending solution) is 110 % of control; the T/C (dose: 125.0 mg/kg/injection, schedule: Q01DX Z (sc), vehicle: steriod suspending solution) is 100 % of control; the T/C (dose: 250.0 mg/kg/injection, schedule: Q01DX Z (sc), vehicle: steriod suspending solution) was 87 % of control.
On to `Nc1nc(=S)c2ncn(C3OC(CO)C(O)C3O)c2[nH]1` (stereo not drawn), for which the T/C is 92 % of control (dose: 0.16 mg/kg/injection, schedule: Q01DX Z (ip), vehicle: carboxymethylcellulose (CMC)); 91 % of control (dose: 0.31 mg/kg/injection, schedule: Q01DX Z (ip), vehicle: carboxymethylcellulose (CMC)); 102 % of control (dose: 0.62 mg/kg/injection, schedule: Q01DX Z (ip), vehicle: carboxymethylcellulose (CMC)); 111 % of control under setting [3]; 152 % of control under setting [4].
On to `CC(=O)[C@H]1CC[C@H]2[C@@H]3C[C@H](C)C4=CC(=O)CC[C@]4(C)[C@H]3C(=O)C[C@]12C`, for which the T/C runs as follows: (dose: 25.0 mg/kg/injection, schedule: Q01DX Z (sc), vehicle: steriod suspending solution) 97 % of control; (dose: 50.0 mg/kg/injection, schedule: Q01DX Z (sc), vehicle: steriod suspending solution) 95 % of control and 103 % of control; (dose: 100.0 mg/kg/injection, schedule: Q01DX Z (sc), vehicle: steriod suspending solution) 97 % of control and 103 % of control and 114 % of control; (dose: 200.0 mg/kg/injection, schedule: Q01DX Z (sc), vehicle: steriod suspending solution) 90 % of control and 105 % of control and 111 % of control; (dose: 400.0 mg/kg/injection, schedule: Q01DX Z (sc), vehicle: steriod suspending solution) 105 % of control and 112 % of control; (dose: 800.0 mg/kg/injection, schedule: Q01DX Z (sc), vehicle: steriod suspending solution) 120 % of control.
As for `N#[N+]c1cnc([O-])[nH]c1=O`, the T/C is 88 % of control under setting [5] and 88 % of control under setting [6].
With `NC(Cc1ccc(N(CCCl)CCCl)cc1)C(=O)O` (stereo not drawn), the T/C is 104 % of control under setting [3]; 106 % of control under setting [4]; 94 % of control (dose: 3.2 mg/kg/injection, schedule: Q01DX Z (ip), vehicle: saline); 106 % of control under setting [5]; 118 % of control (dose: 6.3 mg/kg/injection, schedule: Q01DX Z (ip), vehicle: saline); 120 % of control under setting [6]. For the same molecule, the T/C is 113 % of control (dose: 12.5 mg/kg/injection, schedule: Q01DX Z (ip), vehicle: saline); 98 % of control (dose: 20.0 mg/kg/injection, schedule: Q01DX Z (ip), vehicle: carboxymethylcellulose (CMC)); 94 % of control (dose: 25.0 mg/kg/injection, schedule: Q01DX Z (ip), vehicle: saline).
Consider `S=P(N1CCOCC1)(N1CC1)N1CC1`, for which the T/C by setting is: under setting [1], 104 % of control; under setting [2], 102 % of control.
